This experiment deals with T1, NR2E3 (Homo sapiens, UniProt Q9Y5X4).
T1 construct: aa 90–410 (expressed as His8-MBP-TEV fusion, tag removed)
Kind of experiment: isothermal titration calorimetry ([…] PR3 injected into […] NR2E3; one site model, qualitative). It counts as binding. (ITC needs no label: the signal is the heat of the interaction.)

pKd: −log10 of the molar value.

T1 sequence (Q9Y5X4 90-410): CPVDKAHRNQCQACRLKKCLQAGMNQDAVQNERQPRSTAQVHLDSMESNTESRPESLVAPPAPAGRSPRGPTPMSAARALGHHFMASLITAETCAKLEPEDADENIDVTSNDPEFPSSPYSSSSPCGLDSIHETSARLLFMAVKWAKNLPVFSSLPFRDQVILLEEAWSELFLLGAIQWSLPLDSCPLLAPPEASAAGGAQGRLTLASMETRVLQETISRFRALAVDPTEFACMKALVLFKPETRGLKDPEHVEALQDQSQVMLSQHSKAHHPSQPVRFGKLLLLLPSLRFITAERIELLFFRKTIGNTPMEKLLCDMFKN

As usually defined, the pKd is −log10 of the Kd, conventionally taken in molar units. Low readings indicate a large Kd, high ones a small Kd. For the compound `COc1cc2nc(CN3CC=C(c4ccccc4)CC3)nc(O)c2cc1OC` [PR3, Photoregulin3], the pKd was about 4.17.

Values taken from PMC5693111, “Small molecule Photoregulin3 prevents retinal degeneration in the Rho^P23H mouse model of retinitis pigmentosa” (eLife, 2017).
